We go through 26 compounds from patent US5488055A, “Substituted N-cycloalkylmethyl-1H-pyrazolo(3,4-b)quinolin-4 amines and compositions and methods of use thereof” (Sanofi Winthrop Inc., priority 1995, dated 1996).

For assay [1], the system named is cGMP-PDE V. Description: c-GMP-PDE V inhibitory activity. It counts as biochemical, various animal species and man. On the procedure: The cGMP-PDE and other PDE isozymes were isolated from cardiovascular tissues (heart and aorta) of various animal species and man by anion-exchange and affinity chromatography as described by Silver et al., Sec. Messeng. Phos. 13:13-25, 1991; PDE activity, in the presence and absence of test compounds was determined essentially as described by Thompson et al., Adv. Cyclic Nucleotide Res. 10:69-92. To determine the potency and selectivity of compounds as PDE inhibitors, compounds are screened for their effect on cyclic nucleotide hydrolysis at 10 μM. […] The IC50 values are calculated from concentration-response curves as described by Tallarida and Murray, Manual of Pharmacologic Calculations with Computer Programs, Procedure 8, Graded Dose-response, pp. 14-19, Springer-Verlag, New York, 1981.

Assay [2] concerns Spontaneously hypertensive rats (SHR). Description: Antihypertensive activity in spontaneously hypertensive rats, iv. It counts as in vivo, rat. As for the experimental part: After a 2 day recovery from surgery, three baseline blood pressure measurements were made at 5 min intervals in conscious SHR. Compounds to be tested or vehicle were then administered intravenously in a dose-dependent manner (0.3-10 mg base/kg) while arterial pressure was recorded continuously on a polygraph. The mean arterial pressure response was measured 5 minutes after the administration of each dose of the test compound and the next dose given in a cumulative dose fashion. The response to each dose of the test compound was calculated as the difference from the mean of the three baseline measurements.

Where [3] appears, read: Rattus norvegicus, 5 min, cumulative dosing, 5 minutes after dose, read-out: % change in mean arterial pressure.
The mark [4] stands for this setting: separate experimental runs, first value.
The mark [5] stands for this setting: separate experimental runs, second value.

Where a name gives a salt, the structure may show the parent alone. Read-outs that look alike come from different tables or passages of the source.

A word on the IC50: it is the concentration that inhibits the measured activity by half. A higher IC50 goes with weaker potency. Compound `CCn1ncc2c(NCC3CCCCC3)c3cc(OCC(O)CO)ccc3nc21` (centres unmarked) [17(b), 1-ethyl-6-(2,3-dihydroxypropoxy)-N-(cyclohexylmethyl)-1H-pyrazolo[3,4-b]quinolin-4-amine] came in with an IC50 in assay [1] of 130 nM. Besides, the change in vivo at 10 mg/kg in assay [2] (setting [3]) was -6%.

With `CCn1ncc2c(NCC3CCCCC3)c3cc(O)ccc3nc21` [Example 8, 1-ethyl-6-hydroxy-N-(cyclohexylmethyl)-1H-pyrazolo[3,4-b]quinolin-4-amine], it took 36 nM to reach half-maximal inhibition in assay [1] (IC50). Moreover, the “% change in mean arterial pressure or ED25, result in words” value in assay [2] (0.3-10 mg base/kg) is listed as “Inactive”.

In the case of `CCn1ncc2c(NCC3CCCCC3)c3cc(OCC4CO4)ccc3nc21` (centres unmarked) [Example 21, 1-ethyl-6-(2,3-epoxypropoxy)-N-(cyclohexylmethyl)-1H-pyrazolo[3,4-b]quinolin-4amine], in assay [1], half-maximal inhibition (IC50) was put at 91 nM. The change in vivo at 10 mg/kg in assay [2] (setting [3]) was -12%.

In assay [1], `CCn1ncc2c(NCC3CCCCC3)c3cc(OCC(=O)O)ccc3nc21` [Example 13, 1-ethyl-6-(carboxymethoxy)-N-(cyclohexymethyl)-1H-pyrazolo[3,4-b]quinolin-4-amine] displayed a half-inhibitory concentration (IC50) of 42 nM. For the same compound, the change in vivo at 1 mg/kg in assay [2] (Rattus norvegicus, 5 min, 1 mg/kg, cumulative dosing, 5 minutes after dose, read-out: % change in mean arterial pressure) is -10%.

Consider `CCn1ncc2c(NCC3CCCCC3)c3cc(OC(C)C(=O)O)ccc3nc21` (centres unmarked) [Example 22, 1-ethyl-6-(1-carboxyethoxy)-N-(cyclohexylmethyl)-1H-pyrazolo[3,4-b]quinolin-4-amine], for which, in assay [1], half-maximal inhibition (IC50) required 74 nM. Moreover, the change in vivo at 10 mg/kg in assay [2] (setting [3]) is -7%.

`CCn1ncc2c(NCC3CCCCC3)c3ccccc3nc21` [1(c), 1-ethyl-N-(cyclohexylmethyl)-1H-pyrazolo[3,4-b]quinolin-4-amine] had a concentration for half-maximal inhibition (IC50) in assay [1] of 83 nM. Moreover, the change in vivo at 10 mg/kg in assay [2] (setting [3]) was -15%.

Take `CCn1ncc2c(NCC3CCCCC3)c3cc([N+](=O)[O-])ccc3nc21` [15(c), 1-ethyl-6-nitro-N-(cyclohexylmethyl) -1H-pyrazolo[3,4-b]quinolin-4-amine]: in assay [1], the IC50 was determined as 1.5 nM. In addition, the change in vivo at 3 mg/kg in assay [2] (setting [3]) was -18%.

On to `CCn1ncc2c(NCC3(O)CCCCC3)c3cc(OC)ccc3nc21` [Example 32, 1-ethyl-6-methoxy-N-[(1-hydroxycyclohexyl)methyl]-1H-pyrazolo[3,4-b]quinolin-4-amine], for which the “Percent Inhibition cGMP-PDE V” value in assay [1] (0.1 μM) was 43%; in assay [1] (1 μM), 79%; in assay [1] (10 μM), 96%.

In the case of `CC[C@H](Nc1c2cc([N+](=O)[O-])ccc2nc2c1cnn2CC)C1CCCCC1` [Example 54, 1-ethyl-6-nitro-N-[S(+)-1-(cyclohexyl)propyl]-1H-pyrazolo[3,4-b]quinolin-4-amine], the results for the IC50 in assay [1] (setting [4]) and in assay [1] (setting [5]) were 5.9 nM and 8.8 nM, respectively.

As to `CCn1ncc2c(N[C@H](C)C3CCCCC3)c3cc([N+](=O)[O-])ccc3nc21` [Example 35, 1-ethyl-6-nitro-N-[R (-)-1(cyclohexyl)ethyl]-1H-pyrazolo[3,4-b]quinolin-4amine], the IC50 came to 8.6 nM in assay [1] (setting [4]); 9.5 nM in assay [1] (setting [5]); 9.5 nM in assay [1] (separate experimental runs, third value).

As to `CCn1ncc2c(N[C@@H](C)C3CCCCC3)c3cc([S+](C)[O-])ccc3nc21` (single isomer, unassigned) [Example 48(d), 1-ethyl-6-(methylsulfinyl)-N-[S(+)-1-(cyclohexyl)ethyl]-1H-pyrazolo[3,4-b]quinolin-4-amine], the IC50 in assay [1] was found to be 4.2 nM.

Regarding `CCn1ncc2c(NCC3CCCCC3)c3cc(OC)ccc3nc21` [7(d), 1-ethyl-6-methoxy-N-(cyclohexylmethyl)-1H-pyrazolo[3,4-b]quinolin-4-amine], the half-inhibitory concentration (IC50) in assay [1] is 33 nM. The change in vivo at 3 mg/kg in assay [2] (setting [3]) is -16%.

`CCn1ncc2c(NCC3CCCCC3)c3cc(N)ccc3nc21` [Example 20, 1-ethyl-6-amino-N-(cyclohexylmethyl)-1H-pyrazolo[3,4-b]quinolin-4-amine]: in assay [1], the IC50 came to 300 nM.

`CCn1ncc2c(N[C@@H](C)C3CCCCC3)c3cc(OC)ccc3nc21` [Example 26, 1-ethyl-6-methoxy-N-[S(+)-1-(cyclohexyl)ethyl]-1H-pyrazolo[3,4-b]quinolin-4-amine]: the half-maximal inhibitory concentration (IC50) was determined as 2.6 nM in assay [1] (setting [4]) and 5.2 nM in assay [1] (setting [5]).

`CCn1ncc2c(N[C@@H](C)C3CCCCC3)c3cc(-n4ccnc4)ccc3nc21` [Example 43, 1-ethyl-6-(1-imidazolyl)-N-[S(+)-1-(cyclohexyl)ethyl]-1H-pyrazolo[3,4-b]quinolin-4-amine] showed an IC50 in assay [1] of 27 nM.

In assay [1], `CCn1ncc2c(NCC3CCCCC3)c3ccc(C(=O)O)cc3nc21` [23(c), 1-ethyl-7-carboxy-N-(cyclohexylmethyl)-1H-pyrazolo[3,4-b]quinolin-4-amine] yielded an IC50 of 38 nM. The change in vivo at 3 mg/kg in assay [2] (setting [3]) is -7%.

`CCn1ncc2c(NCC3CCCCC3)c3ccc(OC)cc3nc21` [18(d), 1-ethyl-7-methoxy-N-(cyclohexylmethyl)-1H-pyrazolo[3,4-b]quinolin-4-amine]: 147 nM corresponded to half-maximal inhibition in assay [1] (IC50).

As to `CCn1ncc2c(N[C@@H](C)C3CCCCC3)c3cc(Br)ccc3nc21` [Example 46, 1-ethyl-6-bromo-N-[S(+)-1-(cyclohexyl)ethyl]-1H-pyrazolo[3,4-b]quinolin-4-amine], the IC50 in assay [1] amounted to 0.37 nM.

On to `C[C@H](Nc1c2ccccc2nc2c1cnn2Cc1ccccc1)C1CCCCC1` [Example 38, 1-benzyl-N-[S (+)-1(cyclohexyl)ethyl]-1H-pyrazolo[3,4-b]quinolin-4-amine], for which the “Percent Inhibition cGMP-PDE V” value was found to be 9% in assay [1] (0.01 μM), 22% in assay [1] (0.1 μM) and 77% in assay [1] (1 μM).

On to `CCn1ncc2c(NCC3CCC(CO)CC3)c3ccccc3nc21` (centres unmarked) [6(b), 1-ethyl-N-[(4-hydroxymethylcyclohexyl)methyl]-1H-pyrazolo[3,4-b]quinolin-4-amine], for which the IC50 in assay [1] worked out at 120 nM. Further, the change in vivo at 10 mg/kg in assay [2] (setting [3]) is -23%.

As to `CCn1ncc2c(NCC3CCCCC3)c3cc(C(=O)O)ccc3nc21` [Example 30, 1-ethyl-6-carboxy-N-(cyclohexylmethyl)-1H-pyrazolo[3,4-b]quinolin-4-amine], half-maximal inhibition in assay [1] (IC50) required 30 nM.

Turning to `CCn1ncc2c(N[C@@H](C)C3CCCCC3)c3cc(C#N)ccc3nc21` [41(c), 1-ethyl-6-cyano-N-[S(+)-(1-cyclohexyl)ethyl]-1H-pyrazolo[3,4-b]quinolin-4-amine], it took 0.96 nM to reach half-maximal inhibition in assay [1] (IC50). Compared with the last compound, the IC50 is about 31-fold lower.

On to `CCn1ncc2c(NCC3CCC(O)CC3)c3cc(OC)ccc3nc21` (centres unmarked) [19(d), 1-ethyl-6-methoxy-N-(4-hydroxycyclohexylmethyl)-1H-pyrazolo[3,4-b]quinolin-4-amine], for which, in assay [1] (0.1 μM), the “Percent Inhibition cGMP-PDE V” value worked out at 28%.

In the case of `CCn1nc(C)c2c(NCC3CCCCC3)c3ccccc3nc21` [2(c), 1-ethyl-3-methyl-N-(cyclohexylmethyl)-1H-pyrazolo[3,4-b]quinolin-4-amine hydrochloride], it took 82 nM to reach half-maximal inhibition in assay [1] (IC50).

Consider `CCn1ncc2c(N[C@@H](C)C3CCCCC3)c3cc(S(C)(=O)=O)ccc3nc21` [37(d), 1-ethyl-6-(methylsulfonyl)-N-[S(+)-1-(cyclohexyl)ethyl]-1H-pyrazolo[3,4-b]quinolin-4-amine], for which the IC50 in assay [1] (setting [4]) amounted to 8.3 nM. 11.5 nM corresponded to half-maximal inhibition in assay [1] (setting [5]) (IC50). In assay [2] (setting [3]), the change in vivo at 3 mg/kg was -15% and the change in vivo at 10 mg/kg was -18%.

For the compound `c1ccc(Cn2ncc3c(NCC4CCCCC4)c4ccccc4nc32)cc1` [10(d), 1-phenylmethyl-N-(cyclohexylmethyl)-1H-pyrazolo[3,4-b]quinolin-4-amine], the IC50 in assay [1] amounted to 260 nM.
